Data: BigSolDB 2.1

Cc1cc(O)c2c(c1)C(=O)c1cc(O)cc(O)c1C2=O
solubility (mole fraction)
Details | 273.65 K | 278.35 K | 289.35 K | 298.15 K | 307.5 K | 313.25 K | 318.05 K | 323.05 K
in ethanol | 0.000485 | 0.000626 | 0.000777 | 0.000936 | 0.00116 | 0.00148 | 0.00168 | 0.00216
in n-octanol | 0.00221 | 0.00239 | 0.00266 | 0.00272 | 0.00299 | 0.00347 | 0.00404 | 0.00463
